Columns and labels:
Rat hind quarters = Rat hind quarters perfused with hyperkaliemic tyrode (vasodilative activity); details: 5 x 10^-5 M; for Perfusion pressure after 10' / Perfusion pressure basal: hyperkaliemic tyrode; for Perfusion pressure Δ: basal minus after 10'
Excerpt: The vasodilative activity of PU 122 in comparison with Flunarizine was further evaluated according to the procedure described by F.N. Fastier and F.H. Smirk, (J. Pharm. Exp. Therap. 89, 256-270; […]), by measuring the antagonist action of the test compound against hyperkaliemia induced vasoconstric- tion.
The compounds under test were used at 5.10^-5 M concentration.

cerebral district = assay: Cerebral perfusion in the rabbit (cerebral vasodilative activity); format: in vivo; details: 0.9 uM i.a.; for Area mm^2 / Difference in pressure / Δ: perfusion of the cerebral district
Description: The cerebral vasodilative activity of PU 122 in comparison with Flunarizine was tested by the method of the cerebral perfusion in the rabbit according to the procedure of Von P. Vaupel e H. Hutten (1980), by measurement of the decrease of the peripheral resistances in the cerebral district.
Said changement was determined by means of a transducer, by measuring the hematic pressure at the cerebral level and scoring the lasting of action of the compound under test.
The two test compounds were administered by intraarterial route at the dosage of 0.9 uM, in a volume of 0.2 ml for each animal.

[1] = tested on: human platelet rich plasma (PRP); assay: Platelet aggregation induced by ADP; format: cell-based; details: compared with acetylsalicylic acid
Description: The inhibitory effect on platelet aggregation induced BY ADP on human platelet rich plasma (PRP) was evaluated for PU 122 in comparison with acetylsalicy lie acid, according to the procedure described by G.V.R. Born (Nature, 194, 927; 1962).

rat brain synaptosomes = assay: 45 Ca uptake in synaptosomial preparations (Ca antagonist activity); format: biochemical; details: concentration not given

Row | Compound | Perfusion pressure after 10' (Rat hind quarters) | Perfusion pressure Δ (Rat hind quarters) | Perfusion pressure basal (Rat hind quarters) | Lasting of the effect (cerebral district) | Area mm^2 (cerebral district) | Difference in pressure (cerebral district) | Δ (cerebral district) | IC50 platelet antiaggregating activity [1] | Ca antagonist activity (effect on 45 Ca uptake) (rat brain synaptosomes)
1 | Fc1ccc(C(c2ccc(F)cc2)N2CCN(C/C=C/c3ccccc3)CC2)cc1 [Flunarizine, reference compound] | 95.00 | 80.00 | 175.00 | 12.50 min | 314.2 mm^2 | 10.25 | 25.12 | – | –
2 | COc1ccc(C=CCN2CCN(C(c3ccc(F)cc3)c3ccc(F)cc3)CC2)cc1OC.Cl.Cl [PU 122, 1-(4,4'-Difluorobenzhydryl)-4-(3,4-dimethoxycinnamyl)piperazine dihydrochloride] | 90.00 | 105.00 | 195.00 | 16.70 min | 487.14 mm^2 | 18.75 | 29.17 | substan tially better than that of acetylsalicylic acid | -16.4%

Reference: patent EP0152799A1, “Compounds having peripheral calcium antagonist, anticonvulsive and eumetabolic activity, processes for the preparation thereof and pharmaceutical compositions containing them” (PULITZER ITALIANA S.p.A., priority 1984, dated 1985)
